{"source": "patent US9364566B2", "about": "“Aqueous formulation for selective targeting and delivering gene to cancer cells” (Council of Scientific and Industrial Research, priority 2006, dated 2016)", "test_system": "non-cancer cells", "assay": "Toxicity to non-cancer cells", "format": "cell-based", "conditions": "at the concentration at which dexamethasone is used in the formulation", "excerpt": "In the context the present invention stands with complete patentability because the formulation uses our own patented cationic lipid along side a secondary co-lipid dexamethasone, and a common, generic, glucocorticoid. The dexamethasone is not modified at all and is used as such. […] The use of dexamethasone for the targeted gene delivery to cancer is not documented in any of these papers.\nCell-Culture—MCF-7, CHO, A549 cells were purchased from National Center for Cell Sciences (Pune, India) and were mycoplasma free. Cells were cultured in DMEM medium (Sigma Chemical Co., St. Louis, Mo.) containing 10% fetal bovine serum (Sigma Chemical Co., St. Louis, Mo.) and 1% penicillin-streptomycin at […] in a humidified atmosphere of 5% CO2 in air. Cultures of 85-90% confluency were used for all of the experiments. The cells were trypsinized, counted, subcultured in 96-well plates for transfection and viability studies. The cells were allowed to adhere overnight before they were used for experiments.", "data": [{"smiles": "C[C@@H]1C[C@H]2[C@@H]3CCC4=CC(=O)C=C[C@]4(C)[C@@]3(F)[C@@H](O)C[C@]2(C)[C@@]1(O)C(=O)CO", "note": "[dexamethasone]", "values": [{"measurement": "toxicity to non-cancer cells", "value": "did not induce any toxicity"}]}]}
